Source: US20230293524A1, “OTIC FORMULATIONS FOR DRUG-INDUCED OTOTOXICITY” (Spiral Therapeutics Inc, priority 2019, published 2023)
Read-outs that look alike come from different tables or passages of the source.

Columns and labels:
[1] = tested on: outer hair cells (OHCs) and inner hair cells (IHCs); assay: Cochlear explant model: hair cell protection against cisplatin; assay type: cell-based, Sprague-Dawley rats; conditions: for EC100: Rattus norvegicus, read-out: Ex-vivo Efficacy Conc. for complete protection of hair cells (uM); for protection of hair cells against cisplatin: 1.5 hour pretreatment followed by co-treatment at different concentrations with 10 μM cisplatin
Source text: (§1) For hair cell and spiral ganglion assessment, postnatal Sprague-Dawley rats (P2-P4) of both sexes are anesthetized with isoflurane and decapitated. Temporal bones are removed and transferred to a cell culture dish with ice-cold Ca^2+/Mg^2+-containing phosphate-buffered saline (PBS; Invitrogen) or cold HBSS medium enriched with glucose. Under microscopic visualization, the cochlear capsules are carefully removed from the temporal bone using forceps and transferred to a new cell culture dish containing ice-cold PBS. The cochleae are then dissected from the cochlear capsule using fine forceps. The stria vascularis is removed from the cochlear tissue and discarded. Dissected cochlear epithelia are transferred to permeable membrane inserts (Millicell organotypic culture plate inserts, Millipore) which are placed into 1 mL of culture media (Dulbecco's modified Eagle's medium (high glucose, Glutamax, 25 mM HEPES) with 10% fetal bovine serum, 1% N2 supplement and 10 units/ml penicillin) in a 6-well plate. Up to 4 cochleae are placed onto each membrane. Explants are placed in a humidified chamber with 5% CO2 at 37° C. for a minimum of 18 hours prior to treatment. Cultures are then pre-treated with test compounds and returned to the incubator for a period of 10 minutes to 48 hours.
(§2) Following the incubation period, cochlear samples are fixed in 4% paraformaldehyde for a minimum of 30 minutes after treatment then permeabilized in 0.5% Triton in PBS (PBST) for 1 hour, followed by overnight incubation at 4° C. in primary antibodies in 10% goat or donkey serum (Sigma). Samples are then rinsed in PBST 2 times for 10 minutes each then incubated in alexa-488 conjugated secondary antibodies for 2 hours at room temperature or overnight at 4° C. in 10% goat or donkey serum (Sigma). Samples are then rinsed 2 times in PBS then incubated in DAPI (1:3000) in PBS for 5 minutes prior to mounting on slides. To evaluate the otoprotective efficacy of the compounds, cochlear samples are immunostained using combination of antibodies generated against markers specific for hair cells (Myosin V1, Myosin VIIA, Parvalbumin, etc.), SGNs (TUJ1, Neurofilament, etc.), f-actin, cell death, cell stress, etc. as well as a nuclear stain to identify cell nuclei.
(§3) Immunostained samples are mounted on glass slides and imaged with an LSM880 laser scanning confocal microscope (Zeiss) or an Operetta high-content imager (Perkin Elmer). The entire explant is imaged for all antibody and nuclear labeling in a 3-dimensional X-Y-Z plane in which the Z-plane consists of a stack imaged at intervals of 0.5-5 μm. The total length of the organ of Corti in each explant is then determined and is divided into 4 equal length regions. Basal, middle and apical hair cells or SGNS are counted at the regions approximately 25%, 50% or 75% of the total cochlear length from the base, respectively. Hair cell survival is determined by counting the number of inner and outer hair cells at these three different regions (base, middle and apex) in each cochlear explant and determining the number of missing/dead hair cells per cochlear region. Hair cell counts are obtained by placing a 200 μm length scale bar parallel to the rows of hair cells at each region and manually counting the total number of outer hair cells (OHCs) and inner hair cells (IHCs) within the 200 μm. Similarly, to evaluate the health and survival of SGNs, the density of SGN fibers or soma is also determined per region by manual counting for same region selected for counting hair cells. Nuclear staining is analyzed to confirm the presence or absence of cell nuclei and to evaluate nuclear health. Image analysis and quantification is performed using Zeiss Zen Blue software, or Perkin Elmer Columbus software.
(§4) Neonatal (P2-P4) Sprague-Dawley rats were used for the experiments described here. Animals were euthanized following anesthesia using isoflurane. Rat cochleae were then dissected in cold HBSS medium enriched with glucose. […]

[2] = Cisplatin binding, % bound
[3] = tested on: spiral ganglion neurons (SGNs); assay: Cochlear explant model: spiral ganglion neuron protection against cisplatin; assay type: cell-based, Sprague-Dawley rats; conditions: 1.5 hour pretreatment followed by co-treatment at different concentrations with 10 μM cisplatin
Source text: as §1, §2, §3, §4

[4] = Cisplatin reaction kinetics by HPLC; conditions: 50 μM cisplatin + 50 μM of compound (API) in PBS, pH 7.4, 37° C.
Description: Reaction kinetics between Cisplatin and the compound of interest (nucleophile) were monitored by high performance liquid chromatography. Isocratic separation was achieved using a Waters Spherisorb C8 column (4×250 mm, 5 μm, 80 Å). The flow rate was set to 1.00 mL/min. The mobile phase consisted of 5 mM Sodium Octanesulfonate+5 mM Tetrabutyl Ammonium Hydrogen Sulfate+20 mM Potassium Dihydrogen Phosphate adjusted to pH 5.9. Detection was performed at a wavelength of 210 nm.
Reactions were conducted at equimolar concentrations in buffered aqueous media and held at 37° C. Rate constants (k) were determined by monitoring the disappearance of Cisplatin as a function of time.

[5] = Pharmacokinetic study after intratympanic administration; assay type: in vivo, rats
Description: Female rats (Charles River) weighing 200-300 g of approximately 12-16 weeks of age served as subjects (N=4 per group). Prior to any procedures, animals were anesthetized using a combination of xylazine (10 mg/kg), ketamine (50 mg/kg), and acepromazine (1 mg/kg) for up to an hour via the intraperitoneal route. If needed, an intraoperative booster was administered intraperitoneal representing a one-tenth of the original dose.
Intratympanic injection—Each animal was positioned so that the head was tilted at an angle to favor injection towards the round window niche. […] Formulations were delivered using a perfusion pump at the rate of 2 μL/sec. Contact with the round window membrane was maintained for 30 minutes by placing the animal in a recumbent position. During the procedure and until recovery, animals were placed on a temperature controlled (40° C.) heating pad until consciousness was regained at which time they were returned to the vivarium.
Perilymph sampling procedure—The skin behind the ear of anesthetized rats was shaved and disinfected with povidone-iodine. An incision was then made behind the ear, and muscles were carefully retracted from over the bulla. A hole was drilled through the bulla using a dental burr so that the middle ear was exposed and accessed. The cochlea and the round window membrane were visualized under a stereo surgical microscope. The basal turn of bulla was cleaned by using small cotton ball. A unique microhole was hand drilled through the bony shell of the cochlea (cochlear capsule) adjacent to the round window. Perilymph (about 2 μL) was then collected using a microcapillary inserted into the cochlear scala tympani. Perilymph samples were added to a vial containing 18 μL of acetonitrile/water, stored at −80° C. until analysis.
Cochlear epithelium sampling procedure—Under a dissection scope, the bulla was opened, and the cochlea was exposed by removing all surrounding muscles, blood vessels and bone tissues. Holding the bulla, the cochlear wall bony structure was removed working from the base to the apex of the cochlea, exposing the organ of Corti. The exposed cochlear epithelium was gently dabbed with cotton swab to remove excess of liquid from tissue, carefully transferred to labelled tube. Each 2-mL plastic tube that contained acid washed 2.8 mm stainless steel beads was pre-weighed. The tubes were reweighed after adding cochlea epithelium and weights were recorded. All cochlea epithelium samples were placed in dry ice immediately after collection and stored at −80° C. prior to analysis.
Plasma sampling procedure—Blood samples were collected by cardiac puncture into labeled micro-tubes, containing lithium heparin as anticoagulant. Plasma were immediately harvested from the blood by centrifugation and collection for supernatants. All plasma samples were stored at −80° C. prior to analysis.
Samples were extracted by protein precipitation, then vortexed and centrifuged. The supernatant was collected and diluted with two folds of water. A high-performance liquid chromatography system (Agilent 1200 series) with Waters Cortecs C18 Plus column (50*4.6 mm, 2.7 μm) were used. The flow rate was set at 0.700 mL/min. A gradient method with an analytical run time of 5 minutes was used. Mobile phase A consisted of 0.01% ammonium formate, 0.03% formic acid in water. Mobile phase B consisted of 0.01% ammonium formate, 0.03% formic acid in acetonitrile: methanol (70:30, v/v). The gradient began with 30% B, stepped to 70% B at 2.75 minutes and held for 1 minute and then stepped back to 30% B to re-equilibrate the column.
Ionizations and detection of analyte and internal standard were performed on a triple quadruple mass spectrometer, API 5500 Q-Trap equipped with Turbo IonSpray@, from SCIEX (Toronto, Canada). Electro spray ionization (ESI) mass spectra was operated in the positive ion mode. Carbutamide was used as the internal standard (IS). […]

[6] = Rat cisplatin IP PK study, total platinum by ICP-MS; assay type: in vivo; conditions: for Cmax: read-out: Cmax concentrations in perilymph and cochlear tissues
Description: Total platinum level in samples were analyzed by a qualified inductively coupled plasma mass spectrometric detection (ICP-MS) developed in QPS (Netherlands Lab). Ruthenium were used as internal standard. A flow injection analysis (FIA) method was used to using HPLC pump to introduce samples and internal standard into the systems but without HPLC column. The ICP-quadrupole-MS of Perkin Elmer Sciex Elan 6100 ICP-MS System equipped with a peristaltic pump, nebulizer, spray chamber, and quartz torch were used in platinum analyses.
Sample transport from the autosampler to the nebulizer was performed using a peristaltic pump. The instrument was cooled by using argon gas of 99.999% purity. Data were acquired and processed using the Analyst 1.6. The instrument settings of the ICP-MS had the following operating parameters: ICP radio frequency (RF) power, 1500 W; RF matching, 1.80 V; sampling depth, 8.0 mm; carrier gas, 0.90 L/min; makeup gas, 0.21 L/min; nebulizer pump, 0.10 rps; He gas, 4.5 mL/min; extract 1, 0.0 V; extract 2, −120.0 V; cell entrance, −30 V; cell exit, −30 V; QP bias, −16.0 V; Octp bias, −20.0 V.
The mass to charge ratio is determined by the detector. […] Electronic signals were compared to the standardized curve generated from ultra-high purity platinum samples and solvents. Accounting for dilutions, comparison of the sample signal to the standardized curve will allow for the determination of the original total platinum concentration.
Intraperitoneal injection—The lower right quadrant of the abdomen was shaved and disinfected with alcohol and then povidone iodine. Animals were placed in a supine position and the hind legs were lifted at a 40-degree angle in order to move the abdominal organs towards the diaphragm. A 1″ 23G needle or larger was inserted into the abdominal cavity, directed towards the animal's head, at a 15-20-degree angle and inserted approximately 5 mm. […] After removal of the syringe from the peritoneal cavity, triple antibiotic was placed on the injection site to help prevent infection. During the procedure and until recovery, animals were placed on a temperature controlled (40° C.) heating pad until consciousness was regained at which time they were returned to the vivarium.
Protocol: 3 animals per group at time points. Group A: 30 min, 1 hr, 2 hr, 6 hr, 1 day, 3 day, 7 day, 28 day. Group B: 30 min, 1 hr, 2 hr, 6 hr, 1 day, 3 day. Bioanalysis: Plasma, Perilymph, Cochlear epithelium, CSF. Bioanalytical Method: Total Platinum by ICP-MS.

[7] = intraperitoneal (IP) administration

Row | SMILES | EC100 [1] | protection of hair cells against cisplatin [1] | Cisplatin Binding % bound (in 30 min) at 1:10 ratio [2] | protection of spiral ganglion neurons against cisplatin [3] | k [4] | also measured
1 | CSC[C@H]1O[C@@H](n2cnc3c(N)ncnc32)[C@H](O)[C@@H]1O [5-Deoxy-5-methylthioadenosine] | – | – | – | – | – | Ex-vivo Efficacy Conc. for complete protection of hair cells (uM) ([1]; ex vivo cochlear explants, cisplatin): No protection
2 | CC(=O)c1c[nH]c(=S)n(-c2ccc(C)cc2)c1=O [5-acetyl-3-(p-tolyl)-2-thiouracil] | 500 µM | – | – | – | – | potency on HC protection ([1]; ex-vivo cochlear explants, comparison of thiouracils): lower potency
3 | Sc1ncnc2nc[nH]c12 [6-mercaptopurine] | 50 to 100 µM | complete protection | 60% | near complete protection | – | –
4 | COc1cc(=O)[nH]c(=S)[nH]1 [6-methoxy-2-thiouracil] | 50 to 100 µM | – | – | – | – | –
5 | Nc1nc2c(ncn2[C@H]2C[C@H](O)[C@@H](CO)O2)c(=S)[nH]1 [6-thio-2′-deoxy guanosine] | 100 µM | complete protection | 50% | near complete protection | – | –
6 | Nc1nc2nc[nH]c2c(=S)[nH]1 [6-thioguanine] | 50 to 100 µM | complete protection | 80% | near complete protection | – | –
7 | Nc1nc2c(ncn2[C@@H]2O[C@H](CO)[C@@H](O)[C@H]2O)c(=S)[nH]1 [6-thioguanosine] | 50 to 100 µM | complete protection | – | near complete protection | – | –
8 | O=c1cc[nH]c(=S)[nH]1 [Compound 2-thiouracil, 2-thiouracil] | 50 to 100 µM | – | – | – | 0.15 M⁻¹ s⁻¹ | –
9 | CSCC[C@@H](N)C(=O)O [D-methionine, reference compound] | 10000 µM | – | 40% | – | 0.07 M⁻¹ s⁻¹ | In vivo PK in Cochlear Epithelium (24 h after dosing) [5]: ~200 ng/gm CE
10 | O=S(=O)(O)CCS [MESNA, reference compound] | – | – | – | – | 0.05 M⁻¹ s⁻¹ | –
11 | CCCc1cc(=O)[nH]c(=S)[nH]1 [OMY-141, 6-propyl-2-thiouracil] | 50 to 100 µM | complete protection | 95% | – | 10.27 M⁻¹ s⁻¹ | In vivo PK in Cochlear Epithelium (24 h after dosing) [5]: ~300 ng/gm CE; plasma exposure after IT injection ([5]; single IT injection): some plasma exposure; perilymph and cochlear epithelium exposure after IT injection ([5]; single IT injection, MCT and/or poloxamer formulation): good perilymph and cochlear epithelium exposure
12 | N.N.[Cl][Pt][Cl] [cisplatin] | – | – | – | – | – | Cmax concentrations in perilymph and cochlear tissues ([6]; dosed at 10 mg/kg IP): 700 to 750 ng/mL; Cmax ([6]; dosed at 10 mg/kg IP): 2300 to 2500 nM; Cmax concentrations in perilymph and cochlear tissues ([6]; dosed at 12 mg/kg IP): 700 to 900 ng/mL; Cmax ([6]; dosed at 12 mg/kg IP): 2300 to 3000 nM; time of peak cisplatin levels in cochlear tissues [6, 7]: 6 h; time of peak cisplatin levels in perilymph [6, 7]: ≤ 30 min
